Experimental data published in ChEMBL document CHEMBL4342436, “Artemisia: a promising plant for the treatment of cancer” (Bioorg Med Chem, 2020).
≈ marks a conversion by molar mass, not a printed value.

Legend:
[1] = Cytotoxicity against human PG100 cells assessed as cell viability at 955.2 ug/mL after 24 hrs by MTT assay relative to control; format: functional; details: read-out: Activity
MCF7 [2] = experiment: Cytotoxicity against human MCF7 cells at 50 nM in presence of doxorubicin relative to control; format: functional
[3] = Growth inhibition of human A375P cells at 150 uM after 72 hrs by MTT assay relative to control; format: functional; details: read-out: GI
BE(2)-C = experiment: Induction of apoptosis in human BE(2)-C cells assessed as apoptotic cells at 300 uM after 72 hrs by Annexin V-FITC/propidium iodide staining based flow cytometric analysis relative to control; format: functional
SK-N-DZ = experiment: Induction of apoptosis in human SK-N-DZ cells assessed as apoptotic cells at 300 uM after 72 hrs by Annexin V-FITC/propidium iodide staining based flow cytometric analysis relative to control; format: functional
[4] = Cytotoxicity against rat pancreatic tumour cells assessed as reduction in cell viability after 24 hrs by MTT assay; format: functional, cell-based
[5] = Induction of apoptosis in human SH-EP1 cells assessed as apoptotic cells at 300 uM after 72 hrs by Annexin V-FITC/propidium iodide staining based flow cytometric analysis relative to control; format: functional
[6] = Growth inhibition of human A375M cells at 150 uM after 72 hrs by MTT assay relative to control; format: functional; details: read-out: GI
P388 = experiment: Cytotoxicity against mouse P388 cells; format: functional; details: read-out: ED50 (the source's name)
MCF7 [7] = experiment: Cytotoxicity against human MCF7 cells; format: functional; details: read-out: ED50 (the source's name)
HT-29 = experiment: Cytotoxicity against human HT-29 cells; format: functional; details: read-out: ED50 (the source's name)
KB = experiment: Cytotoxicity against human KB cells; format: functional; details: read-out: ED50 (the source's name)
SK-N-AS = experiment: Induction of apoptosis in human SK-N-AS cells assessed as apoptotic cells at 300 uM after 72 hrs by Annexin V-FITC/propidium iodide staining based flow cytometric analysis relative to control; format: functional
Lymphocyte [8] = experiment: Induction of apoptosis in human Lymphocyte cells assessed as apoptotic cells at 2 ug/ml after 24 hrs by Annexin V-FITC/propidium iodide staining based fluorescence microscopic method relative to control; format: cell-based
[9] = Antitumour activity against mouse mammary cancer cells transplanted in Balb/c mouse assessed as tumour size at 6 mg/kg, ip for 13 days; format: functional
PC-14 = experiment: Induction of apoptosis in human PC14 cells assessed as increase in apoptotic cells at 30 uM after 24 hrs by Annexin V-FITC/propidium iodide staining based flow cytometric analysis relative to control; format: functional
[10] = Cytotoxicity against human U373 cells assessed as reduction in cell viability after 24 hrs by MTT assay; format: functional, cell-based, U-373MG ATCC; details: U373 MG
U-937 [11] = experiment: Induction of apoptosis in human U937 cells assessed as increase in apoptotic cells at 60 uM after 24 hrs by Annexin V-FITC/propidium iodide staining based flow cytometric analysis relative to control; format: functional
HCT-116 = experiment: Induction of apoptosis in human HCT116 cells assessed as increase in apoptotic cells at 40 uM after 24 hrs by Annexin V-FITC/propidium iodide staining based flow cytometric analysis relative to control; format: functional
C6 = experiment: Induction of apoptosis in rat C6 cells assessed as apoptotic cells at 200 uM after 24 hr in presence of holo-transferrin by Annexin V-FITC/propidium iodide staining based flow cytometric analysis relative to control; format: functional
U-937 [12] = experiment: Antitumour activity against human U937 cells xenografted in NOD/SCID mouse assessed as tumor growth inhibition at 50 mg/kg, ip for 20 days relative to control; format: functional; details: U-937, ip, 480 h, read-out: TGI
[13] = Cytotoxicity against human U251/CP2 cells assessed as reduction in cell viability after 24 hrs by MTT assay; format: functional, cell-based; details: U-251, 24 h
CFPAC-1 [14] = experiment: Cytotoxicity against human CFPAC-1 cells assessed as cell viability after 24 hrs by MTT assay relative to control; format: functional
MG-63 [15] = experiment: Cytotoxicity against human MG63 cells assessed as cell viability after 48 hrs in presence of allicin by MTT assay relative to control; format: functional
PANC-1 [16] = experiment: Antitumour activity against human PANC1 cells xenografted in ip dosed nude BALB/c mouse assessed as tumor weight for 18 days; format: functional
MGC-803 = experiment: Cytotoxicity against human MGC803 assessed as cell viability at 160 mg/l after 48 hrs by MTT assay relative to control; format: functional; details: MGC-803, 48 h, read-out: Activity
CFPAC-1 [17] = experiment: Antitumour activity against human CFPAC-1 cells xenografted in ip dosed nude BALB/c mouse assessed as tumor weight for 18 days; format: functional
MG-63 [18] = experiment: Antitumour activity against human MG63 cells xenografted in nude BALB/c mouse assessed as tumour weight at […], ip for 5 days co-treated with allicin; format: functional
Y79 = experiment: Induction of cell death in human Y79 cells by propidium iodide staining based flow cytometric analysis relative to control; format: functional
PANC-1 [19] = experiment: Cytotoxicity against human PANC1 cells assessed as cell viability after 24 hrs by MTT assay relative to control; format: functional
U2OS = experiment: Cytotoxicity against human U2OS cells assessed as cell viability after 48 hrs in presence of allicin by MTT assay relative to control; format: functional
HGC-27 = experiment: Cytotoxicity against human HGC27 assessed as cell viability at 160 mg/l after 48 hrs by MTT assay relative to control; format: functional; details: HGC-27, 48 h, read-out: Activity
H22 = experiment: Antitumour activity against mouse H22 cells transplanted in mouse assessed as tumour growth inhibition at 300 mg/kg after 7 days relative to control; format: functional; details: H22, 168 h, read-out: TGI
Lymphocyte [20] = experiment: Cytotoxicity against human lymphocytes; format: cell-based
BGC-823 = experiment: Cytotoxicity against human BGC823 assessed as cell viability at 160 mg/l after 48 hrs by MTT assay relative to control; format: functional; details: BGC-823, 48 h, read-out: Activity
K562 = experiment: Cytotoxicity against human K562 cells; format: functional; details: read-out: ED50 (the source's name)
CCRF-CEM = experiment: Cytotoxicity against human CCRF-CEM cells; format: functional; details: read-out: ED50 (the source's name)
HL-60(TB) = experiment: Cytotoxicity against human HL-60(TB) cells; format: functional; details: read-out: ED50 (the source's name)
[21] = Antiproliferative activity against human SNU484 cells assessed as reduction in cell viability after 24 hrs by CCK8 assay; format: functional, cell-based; details: SNU-484, 24 h
[22] = Antiproliferative activity against human SNU601 cells assessed as reduction in cell viability after 24 hrs by CCK8 assay; format: functional, cell-based; details: SNU-601, 24 h
SNU-638 = experiment: Antiproliferative activity against human SNU638 cells assessed as reduction in cell viability after 24 hrs by CCK8 assay; format: functional, cell-based; details: SNU-638, 24 h
MKN-1 = experiment: Antiproliferative activity against human MKN1 cells assessed as reduction in cell viability after 24 hrs by CCK8 assay; format: functional, cell-based; details: MKN-1, 24 h
AGS = experiment: Antiproliferative activity against human AGS cells assessed as reduction in cell viability after 24 hrs by CCK8 assay; format: functional, cell-based
HL-60 = experiment: Antiproliferative activity against human HL60 cells assessed as cell viability at 150 uM by MTT assay relative to control; format: functional; details: read-out: Activity
U-87 MG = experiment: Induction of apoptosis in human U87MG cells assessed as increase in apoptotic cells at 50 uM after 24 hrs by Annexin V-FITC/propidium iodide staining based flow cytometric analysis relative to control; format: functional, U-87MG ATCC
MCF-10A = experiment: Induction of apoptosis n human MCF10A transformed with RAS gene at 100 uM by flow cytometric analysis relative to control; format: functional
THP-1 = experiment: Cytotoxicity against human THP1 cells after 48 hrs by trypan blue dye exclusion counting method; format: functional, cell-based; details: THP-1, 48 h
A-431 = experiment: Cytotoxicity against human A431 cells assessed as reduction in cell viability incubated for 24 hrs by MTT assay; format: functional, cell-based; details: A-431, 24 h
COLO 205 = experiment: Antiproliferative activity against human COLO205 cells assessed as reduction in cell viability after 48 hrs by MTT assay; format: functional, cell-based; details: COLO 205, 48 h
MCF7 [23] = experiment: Antiproliferative activity against human MCF7 cells assessed as reduction in cell viability after 48 hrs by MTT assay; format: functional, cell-based; details: MCF7, 48 h
A549 = experiment: Antiproliferative activity against human A549 cells assessed as reduction in cell viability after 48 hrs by MTT assay; format: functional, cell-based; details: A549, 48 h
B16-F10 = experiment: Cytotoxicity against mouse B16F10 cells assessed as reduction in cell viability incubated for 24 hrs by MTT assay; format: functional, cell-based; details: B16-F10, 24 h
BHY = experiment: Antiproliferative activity against human BHY cells assessed as reduction in cell viability after 48 hrs by MTT assay; format: functional, cell-based
MIA PaCa-2 = experiment: Antiproliferative activity against human MIAPaCa2 cells assessed as reduction in cell viability after 48 hrs by MTT assay; format: functional, cell-based; details: MIA PaCa-2, 48 h
[24] = Cytotoxicity against human 95-D cells by SRB assay; format: functional, cell-based

CO[C@H]1O[C@@H]2O[C@@]3(C)CC[C@H]4[C@H](C)CC[C@@H]([C@H]1C)[C@@]24OO3
viability at 955.2 µg/mL [1]: 5.55%
Activity (MCF7 [2]): 50%

C[C@@H]1CC[C@H]2[C@@H](C)C(=O)O[C@@H]3O[C@@]4(C)CC[C@@H]1[C@]32OO4 [ARTEMISININ]
inhibition of growth at 150 µM [3]: 68%
Activity (BE(2)-C): 42%
Activity (SK-N-DZ): 40%
IC50 [4]: 45 µM
Activity [5]: 23%
inhibition of growth at 150 µM [6]: 60%
EC50 (P388): 1.25 to 9.62 µg/mL (≈ 4.43 to 34.1 µM)
EC50 (MCF7 [7]): 1.25 to 9.62 µg/mL (≈ 4.43 to 34.1 µM)
EC50 (HT-29): 1.25 to 9.62 µg/mL (≈ 4.43 to 34.1 µM)
EC50 (KB): 1.25 to 9.62 µg/mL (≈ 4.43 to 34.1 µM)
Activity (SK-N-AS): 22%
Activity (Lymphocyte [8]): 70%

CCO[C@H]1O[C@@H]2O[C@@]3(C)CC[C@H]4[C@H](C)CC[C@@H]([C@H]1C)[C@@]24OO3 [ARTEMOTIL]
Activity [9]: 800 mm3

C[C@H]1[C@@H](O)O[C@@H]2O[C@@]3(C)CC[C@H]4[C@H](C)CC[C@@H]1[C@@]24OO3 [ARTENIMOL]
Activity (PC-14): 45%
IC50 [10]: 1.17 to 23.6 µg/mL (≈ 4.11 to 82.9 µM)
Activity (U-937 [11]): 70%
Activity (HCT-116): 48.3%
Activity (C6): 66.42%
inhibition in vivo at 50 mg/kg (U-937 [12]): 70%
IC50 [13]: 1.17 to 23.6 µg/mL (≈ 4.11 to 82.9 µM)

C[C@H]1[C@H](OC(=O)CCC(=O)O)O[C@@H]2O[C@@]3(C)CC[C@H]4[C@H](C)CC[C@@H]1[C@@]24OO3 [ARTESUNATE]
Activity (CFPAC-1 [14]): <10%
Activity (MG-63 [15]): <25%
Activity (PANC-1 [16]): <0.4 g
viability at 160 µg/mL (MGC-803): < 20%
Activity (CFPAC-1 [17]): <0.4 g
Activity (MG-63 [18]): <0.5 g
Activity (Y79): 80%
Activity (PANC-1 [19]): <10%
Activity (U2OS): <25%
viability at 160 µg/mL (HGC-27): < 20%
inhibition in vivo at 300 mg/kg (H22): 49.1%
IC50 (Lymphocyte [20]): 80 µM
viability at 160 µg/mL (BGC-823): < 20%

C=C1C(=O)O[C@@H]2O[C@@]3(C)CC[C@H]4[C@H](C)CC[C@@H]1[C@@]24O3 [DEOXYARTEMISITENE]
EC50 (K562): 0.94 µg/mL (≈ 3.56 µM)
EC50 (CCRF-CEM): 0.92 µg/mL (≈ 3.48 µM)
EC50 (HL-60(TB)): 0.62 µg/mL (≈ 2.35 µM)

COc1ccc(-c2cc(=O)c3c(O)c(OC)c(O)cc3o2)cc1OC [EUPATILIN]
IC50 [21]: 50 to 100 µM
IC50 [22]: 50 to 100 µM
IC50 (SNU-638): 50 to 100 µM
IC50 (MKN-1): 50 to 100 µM
IC50 (AGS): 50 to 100 µM
viability at 150 µM (HL-60): 50%
Activity (U-87 MG): 40%

COc1cc(-c2cc(=O)c3c(O)c(OC)c(O)cc3o2)ccc1O [JACEOSIDINE]
Activity (MCF-10A): 48.72%
IC50 (THP-1): 70.5 µM

C=C1C(=O)O[C@H]2[C@H]1CCC(C)=C1C[C@H]3O[C@@]3(C)[C@@H]12 [LUDARTIN]
IC50 (A-431): 19 µM
IC50 (COLO 205): 25.2 to 88.1 µM
IC50 (MCF7 [23]): 25.2 to 88.1 µM
IC50 (A549): 25.2 to 88.1 µM
IC50 (B16-F10): 6.6 µM
IC50 (BHY): 25.2 to 88.1 µM
IC50 (MIA PaCa-2): 25.2 to 88.1 µM

CC1(C)CCC[C@@]2(C)[C@H]1[C@H](O)C=C1COC(=O)[C@@]12O [STROBILACTONE A]
IC50 [24]: 19.8 µM
